Earlier results on one compound are cited in US20240122889A1, “DRY POWDER COMPOSITIONS OF TREPROSTINIL PRODRUGS AND METHODS OF USE THEREOF” (Insmed Incorporated, priority 0001, published 2024).

For the data set, the system named is conscious male guinea pigs.

Consider `CCCCC[C@H](O)CC[C@@H]1[C@H]2Cc3cccc(OCC(=O)O)c3C[C@H]2C[C@H]1O` [TRE, Treprostinil], for which the “Threshold dose that causes cough” value (inhaled TRE given by nebulization) was 1.2 μg TRE/kg body weight. The Timing of cough (nebulized, time of exposure) is no more than 10 min.
